The target in one data set is T1, CYP3A4 (Homo sapiens, UniProt P08684).
T1 construct: purchased BD Gentest (Woburn, Mass.)
The data set can be described thus: Time- and concentration-dependent inactivation of CYP3A4, rivaroxaban probe. It counts as in vitro ADME. The following applies: for KI (inactivation): human, recombinant CYP3A4, pH 7.4, probe rivaroxaban (50 μM), in vitro data obtained, rivaroxaban probe, read-out: Mechanism-based inactivation KI CYP3A4. As for the experimental part: Incubations were conducted in triplicates in 96-well plates. Primary incubation mixtures comprising various concentrations of inhibitor (0-20 μM) were pre-incubated at 37° C. for 3 min with CYP3A4 or CYP3A5 (20 pmol/mL) and NADPH B in potassium phosphate buffer (100 mM, pH 7.4). To initiate the enzymatic reaction, 5 μL NADPH A was added to the primary incubation. The final primary incubation mixture volume was 100 μL and contained <1% v/v organic solvent. At different pre-incubation time points (3, 8, 15, 22, 30, and 45 min) after the addition of NADPH A, 5 μL aliquots of the primary incubation were transferred to 95 μL of the secondary incubation containing 50 μM rivaroxaban, the NADPH A and B, and potassium phosphate buffer (100 mM, pH 7.4) to yield a 20-fold dilution. The secondary incubation mixtures were incubated at 37° C. for 2 h with CYP3A4 or CYP3A5 before 80 μL aliquots were removed and quenched with an equal volume of ice-cold ACN containing 4 μM dexamethasone as IS. The samples were then centrifuged at 3220 g at 4° C. for 30 min before transferring the supernatant to a 96-well plate for liquid chromatography-tandem mass spectrometry (LC-MS/MS) analysis. The main rivaroxaban metabolite, morpholinone hydroxylated metabolite, was quantified using LC-MS/MS analysis.
The mean of triplicate peak area ratios for each inhibitor concentration and pre-incubation time was normalized to that of 0 μM inhibitor with the same pre-incubation time. The amount of rivaroxaban metabolite formed during the secondary incubation, a measure of the probe substrate activity remaining, was computed and the natural logarithm of this measure was plotted against inactivation pre-incubation time for each inactivator concentration. For each concentration, the data was then fitted to a linear regression model, through which kobs (apparent inactivation rate constant) was obtained as the negative gradient of the linear regression. […]

The conditions of data set [1]: cited from earlier work.
The next data set relates to dogs. In words: Electrophysiological variables (AERP, VERP, repolarization periods) in halothane-anesthetized dogs. It counts as in vivo, dog. The conditions noted are these: 3 mg/kg. As for the experimental part: Animals were obtained through Kitayama Labes Co., Ltd. (Nagano, Japan). All experiments were approved by the Toho University Animal Care and User Committee (No. 18-51-395) and performed according to the Guideline for the Care and Use of Laboratory Animals of Toho University.
The dogs were initially anesthetized with thiopental sodium (30 mg/kg, i.v.). After intubation with a cuffed endotracheal tube, anesthesia was maintained by inhalation of halothane (1% v/v) vaporized in oxygen with a volume-limited ventilator (SN-480-3; Shinano Manufacturing Co., Ltd., Tokyo, Japan). Tidal volume and respiratory rate were set at 20 mL/kg and 15 breaths/min, respectively. […] To prevent blood clotting, heparin calcium (100 IU/kg) was intravenously administered through a flush line of the catheter sheath placed at the right femoral vein.
The lead II electrocardiogram was obtained from the limb electrodes. The P-wave duration, PR interval, QRS width and QT interval were measured, and QT interval was corrected with Van de Water's formula: QTc=QT-0.087×(RR-1,000) with RR given in ms. The J-Tpeak and Tpeak-Tend were measured as follows. When the end of T-wave was obscure, we used the monophasic action potential (MAP) signal as a guide to estimate the end. The J-Tpeak was corrected for the heart rate with a coefficient as previously described (J-Tpeakc=J-Tpeak/RR^0.58 with RR given in seconds).
A standard 6-French, quad-polar electrodes catheter (Cordis-Webster Inc., Baldwin Park, Calif., USA) was positioned at the non-coronary cusp of the aortic valve through the left femoral artery to obtain the His bundle electrogram. Another 6-French, quad-polar electrode catheter (Cordis-Webster Inc.) was positioned at the sinus nodal areas of the right atrium through the right femoral vein to electrically pace and to record the local electrogram. A bi-directional steerable MAP recording/pacing combination catheter (1675P; EP Technologies, Inc., CA, USA) was positioned at the endocardium of the interventricular septum in the right ventricle through the left femoral vein to obtain MAP signals. The signals were amplified with a DC preamplifier (model 300; EP Technologies, Inc.). The duration of the MAP signals was measured as an interval, along a horizontal line corresponding to the diastolic baseline, from the MAP upstroke to the desired repolarization level. The interval (ms) at 90% repolarization was defined as MAP90.
The heart was electrically driven with a cardiac stimulator (SEC-3102; Nihon Kohden Co., Ltd.) via the pacing electrodes of the combination catheter placed in the right ventricle or the electrodes of the catheter placed at the right atrium. The stimulation pulses were rectangular in shape, 1-2 V (about twice the threshold voltage) and 1 ms duration. The MAP90 of the ventricle was measured during sinus rhythm (MAP90(sinus)) and at a pacing cycle length of 400 ms (MAP90(CL400)) and 300 ms (MAP90(CL300)). The atrial effective refractory period (AERP) and ventricular effective refractory period (VERP) were assessed with the programmed electrical stimulation. The pacing protocol consisted of 5 beats of basal stimuli in a cycle length of 400 ms followed by an extra stimulus of various coupling intervals. Starting in the late diastole, the coupling interval was shortened in 5-ms decrements until the additional stimulus could no longer elicit a response. The AERP and VERP were defined as the shortest coupling interval that could produce a response. The duration of the terminal repolarization period of the ventricle, reflecting phase-3 repolarization time of the action potential, was calculated by the difference between the MAP90(CL400) and VERP (terminal repolarization period=MAP90(CL400)−VERP) at the same site to estimate the extent of electrical vulnerability of the ventricular muscle.

Data set [2] can be described thus: Aqueous solubility, MultiscreenHTS PCF Filter Plates. It counts as physicochemical. The conditions noted are these: aqueous buffer; universal buffer (pH 7.4). The protocol: The aqueous solubility of each compound was measured in universal buffer (pH 7.4) using MultiscreenHTS PCF Filter Plates. The effective permeability of each compound was measured using the parallel artificial membrane permeability assay (PAMPA).

Consider 2 compounds from US20220267288A1, “CARDIAC THERAPEUTIC” (priority 2019, published 2022).

For orientation: log P means a log measure of how a compound divides between an organic and an aqueous phase. Broadly, the pKa is the pH at which an ionisable group is half protonated. Usually solubility stands for the concentration that dissolves in the medium under given conditions.

Read-outs that look alike come from different tables or passages of the source.

T1 sequence (P08684 whole entry): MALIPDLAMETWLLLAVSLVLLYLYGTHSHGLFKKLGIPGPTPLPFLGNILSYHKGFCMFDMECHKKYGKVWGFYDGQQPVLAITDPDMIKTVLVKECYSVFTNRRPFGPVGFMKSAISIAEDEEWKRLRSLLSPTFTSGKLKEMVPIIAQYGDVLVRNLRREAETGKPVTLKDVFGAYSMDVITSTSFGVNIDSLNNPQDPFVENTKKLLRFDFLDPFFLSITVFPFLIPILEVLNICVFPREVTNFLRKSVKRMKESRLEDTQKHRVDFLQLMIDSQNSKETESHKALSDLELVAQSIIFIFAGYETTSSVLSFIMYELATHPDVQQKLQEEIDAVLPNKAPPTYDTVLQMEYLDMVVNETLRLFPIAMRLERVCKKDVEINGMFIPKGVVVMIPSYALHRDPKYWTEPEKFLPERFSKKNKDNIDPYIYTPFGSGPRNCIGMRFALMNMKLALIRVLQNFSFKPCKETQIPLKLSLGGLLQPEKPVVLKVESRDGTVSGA

Turning to `CCCCc1oc2ccc(NS(C)(=O)=O)cc2c1C(=O)c1ccc(OCCCN(CCCC)CCCC)cc1.Cl` [Dronedarone], on CYP3A4, the KI (inactivation) was determined as 5.3 µM. Further, on CYP3A4 (rivaroxaban probe substrate), the “MBI potency against CYP3A4” value is reported as 0.00505 AV min^−1. In data set [1] (PBPK parameter), the Caco-2 permeability is 5.95e-07 cm/s, the “Kp of tissues: Adipose” value is reported as 1, the “Kp of tissues: Heart” value was 1 and the “Kp of tissues: Kidney” value is given as 1. In addition, in data set [1] (PBPK parameter), the “Kp of tissues: Liver” value was 38.05, the “Kp of tissues: Lung” value was 64.01, the fu was 0.003 and the log partition coefficient (log P) is recorded as 6.46. In data set [1] (PBPK parameter, monoprotic base), the pKa is given as 9.4. For the same compound, the Solubility-pH profile in data set [1] (pH 3) is reported as 1.6 mg/mL. The Solubility-pH profile in data set [1] (pH 4) was 1.6 mg/mL. Also, the Solubility-pH profile in data set [1] (pH 5) is on record as 1.5 mg/mL. In data set [1] (pH 6), the Solubility-pH profile is recorded as 0.1 mg/mL. Besides, in data set [1] (pH 7), the Solubility-pH profile is reported as 0.01 mg/mL. Also, in the data set on dogs (20 min after administration), the ΔAERP entry is listed as “+43” and the ΔVERP entry is “+23”. Besides, in the data set on dogs (60 min after administration), the “ΔJ-Tpeakc (early repolarization period)” value was “+7”, the “ΔTRP (terminal repolarization period)” value is “+11” and the “ΔTpeak-Tend (late repolarization period)” value is “+25”. Also, the concentration in solution in data set [2] (solubility) was 3.22 µg/mL.
In the case of `Cl.[2H]c1c(NS(C)(=O)=O)c([2H])c2c(C(=O)c3ccc(OCCCN(CCCC)CCCC)cc3)c(CCCC)oc2c1[2H]` [Poyendarone, Methanesulfonamide, N-(2-butyl-3-(4-(3-(dibutylamino)propoxy)benzoyl)-1-benzo(4,6,7-d3)-furan-5-yl)hydrochloride], the KI (inactivation) on CYP3A4 turned out to be 3.19 µM. In data set [1] (PBPK parameter, assumed), the Caco-2 permeability is 5.95e-07 cm/s, the “Kp of tissues: Liver” value is recorded as 38.05, the “Kp of tissues: Lung” value is 64.01 and the pKa is 9.4. Moreover, in data set [1] (PBPK parameter), the “Kp of tissues: Adipose” value was 1, the “Kp of tissues: Heart” value was 1, the “Kp of tissues: Kidney” value is on record as 1 and the “log P” value was 6.442. Also, in data set [1] (assumed), the “Additional HLM clearance” value was 55 μL/min/mg microsomal protein and the Intrinsic solubility is reported as 2.01 × 10^−3 (assumed) mg/mL. For the same compound, in the data set on dogs (30 min after administration), the ΔAERP entry is “+25” and the ΔVERP result is “+14”. Besides, in the data set with dogs (45 min after administration), the ΔAERP entry is listed as “+34”, the “ΔJ-Tpeakc (early repolarization period)” value is recorded as −5, the “ΔTRP (terminal repolarization period)” value was −1.5 and the “ΔTpeak-Tend (late repolarization period)” value is “+1”. For the same compound, the ΔVERP result with dogs (45 min after administration) is given as “+13”. In data set [2], the solubility is 2.43 µg/mL.
